According to patent US20250058002A1, “ELECTROCHEMICAL INHIBITION OF REDOX ACTIVE BACTERIA AND RELATED DEVICES, METHODS AND SYSTEMS” (priority 2023, published 2025):
Read-outs that look alike come from different tables or passages of the source.

How the values were obtained:
[1] = Square wave voltammograms of electrode-attached biofilms; type: physicochemical; conditions: acquired immediately after transfer to anoxic reactors
Description: FIG. 3: Electrochemical signal of wild type, Δphz*, and Δphz*+10 μM PYO showing PYO (E1/2=−250 mV vs Ag/AgCl) is the only redox active signal observed under these conditions and is retained by wild type biofilms. Square wave voltammograms acquired immediately after transfer to anoxic reactors.
Square Wave Voltammograms. Potential was scanned from +100 mV to −500 mV vs Ag/AgCl and in reverse with the following parameters: pulse height=50 mV, pulse width=66.6 ms, step height=−0.5 mV, and acquisition of the average current over the last 50% of each step. Square wave voltammograms were acquired immediately after transfer from oxic to anoxic conditions.

[2] = Midpoint potential E1/2 by voltammetry vs Ag/AgCl (3M KCl); type: physicochemical; conditions: for E1/2 (vs. Ag/AgCl (3M KCl))/mV: Example 15 table
Description: The purified redox-active molecule can be dissolved in aqueous solution at appropriate concentration in the presence of supporting electrolyte and buffer to select the pH of measurement. For example, the redox-active molecule can be dissolved in 10 μM-10 mM concentrations in distilled, deionized water (DDW). The supporting electrolyte can be a salt such as NaCl or KCl at 0.01-0.5 M concentrations, for example, dissolved in DDW. The buffer can be 10 mM ammonium acetate/3-(N-morpholino)propanesulfonic acid at pH 7, or phosphate-buffered saline (PBS) at pH 7.4, or sodium acetate buffer at pH 5, or di-sodium hydrogen phosphate/potassium dihydrogen phosphate at pH 9, or boric acid/citric acid/trisodium phosphate for a wide range of pH values, for example.
Voltammetric methods are then used to characterize the electrochemical behavior of the redox-active molecule in such solution, with a potentiostat such as a Gamry PC4-300, using a three-electrode setup with working electrode (glassy carbon, or platinum, or gold), counter electrode (platinum wire) and reference electrode (Ag/AgCl (3M KCl), or SCE, or NHE; values are reported relative to Ag/AgCl (3M KCl) which has potential +197 mV vs. NHE at 298K).
For example, cyclic voltammetry may be used. In a cyclic voltammetry experiment phenazines will show a peak on the cathodic sweep (denoted Epc) corresponding to the reduction of the redox molecule.
The reverse, anodic sweep will show a peak (denoted Epa) corresponding to the re-oxidation of the redox molecule. If the electrode reaction is diffusion-controlled and reversible, the cathodic and anodic peak currents will be equal in area, and the mid-point between these peaks may be taken as the formal reduction potential of the redox molecule under the experimental conditions used. This value can interchangeably be referred to as the “midpoint potential” or “mid-peak potential”, denoted E1/2.
PYO was purified from aerobic bacterial cultures and was dissolved in 0.1 M KCl aqueous solution buffered with 10 mM ammonium acetate-3-(N-morpholino)propanesulfonic acid (5 mM each, pH 7) to yield a stock solution concentration of 829 μM PYO. Electrochemical measurements were performed with a Gamry PC4-300 potentiostat. A stationary gold disk electrode (BASi) was used as the working electrode, an Ag/AgCl electrode (RE-51, BASi) as the reference, and a straight platinum wire (BASi) was the counter electrode. Scans were performed between 20 and 500 mV/s in the potential range of around E1/2 (+/−300 mV), at 298 K.
As described in en.wikipedia.org/wiki/Nernst_equation, the Nernst equation relates E1/2 measured at pH 7 to the E1/2 at a different pH by:
[formula] • where E1/2 is in V • h is the number of protons transferred in the electrochemical reaction • e is the number of electrons transferred in the electrochemical reaction

[3] = from Wang and Newman (2008), cited from earlier work
Δphz* biofilms = assay: Anoxic survival (CFU) of electrode-attached phenazine-deficient biofilms at poised potential; type: cell-based, P. aeruginosa UCBPP-PA14; Δphz*; conditions: 10 μM PYO added, PYO-reductive conditions
Description: Electrochemical reactors and biofilm growth. Double-jacketed electrochemical reactors (Pine Instruments, 250 ml, wide center port 29/26) were used with ITO-coated 0.2 mm thick boro-aluminosilicate glass slides (Delta Technologies, 24×60 mm, Rs=7-10Ω) as working electrodes, freshly sanded graphite rods (Alfa Aesar) as counter electrodes, and Ag/AgCl in 3M KCl reference electrodes (BASi). Silver epoxy (Electron Microscopy Sciences) was used to make electrical connection between insulated wire ([…]) and working electrode and was insulated using 5 Minute® expoxy (Devcon). Working electrodes were assembled within 5 hours of use. Reactors were sterilized by autoclaving without reference or working electrodes, which were sterilized by submerging in 10% bleach for 5 minutes or 30 seconds, respectively, and rinsed in sterile water. Individual mid-log liquid cultures (OD600 0.45-0.55) were used to inoculate sterile reactors containing 140 ml of MM (described above) with 0.1% (vol/vol) for each biological replicate. Antibiotics were not added at this point. Working electrodes were poised at either open circuit, +100 mV, or −400 mV vs. Ag/AgCl (+310 mV and −190 mV vs the standard hydrogen electrode, respectively). Reactors were aerated using an aquarium pump with a 0.2 μm filter (Thermo Scientific) and heated to 31° C. using a circulating water bath (Haake A 25, Thermo Scientific). Fresh medium was exchanged every 24 hours for 5 days. After 5 days of aerobic growth, working electrode-attached biofilms were rinsed in sterile medium to remove planktonic cells and transferred to sterile reactors with fresh MM previously flushed for 2 hours with N2 ultra-high purity gas (NRL supply store). For antibiotic exposure experiments, antibiotics were added to sterile media before flushing with N2. […]
Biofilm harvesting and processing. […] SYTO-60 was excited with a 561 nm; 0.20% laser and emission was recorded from 580-700 nm. TOTO-1 was excited with a 488 nm; 0.20% laser and emission was recorded from 490 to 580 nm.

PA14 [4] = assay: Reduction of redox-active compound by PA14 (Table 4); type: cell-based, P. aeruginosa
Excerpt: (§1) Phenazines and other redox active compound in the sense of the disclosure can be further characterized by various electrical properties such as a standard electrode potential E° vs. NHE of −500 mV to 500 mV and other properties such as number of redox cycle over a certain period of time (e.g. number of days) as ability to support survival and susceptibility to reduction by enzymes and/or bacterial strains.

[5] = oxidized form; literature values (footnotes a, c, d); cited from earlier work
[6] = vs NHE at pH7; cited from earlier work
PA14 [7] = assay: Redox cycles over 7 days and support of survival (Table 4); type: cell-based, P. aeruginosa
Excerpt: as §1

[8] = system: P. aeruginosa PA14 liquid cultures; assay: Toxicity of reduced PYO to liquid-grown cells under anoxic conditions; type: cell-based; conditions: 1, 10, and 100 μM reduced PYO, 30 minutes, normalized to untreated
Description: FIG. 8: Toxicity of reduced PYO to liquid-grown cells. Exposure of mid-log aerobic P. aeruginosa PA14 liquid cultures to 1, 10, and 100 μM reduced PYO under anoxic conditions. Triplicate data shown normalized to untreated samples with line at mean.
Treatment of liquid cultures with reduced PYO. 100 μM PYO in MM was reduced electrochemically using a dual-chamber reactor with an cation exchange membrane (CMI-7000, Membranes International) to avoid re-oxidation of PYO at the counter electrode. […] chamber contained Ag/AgCl reference electrode, platinum mesh working electrode, and was flushed with N2; while […] chamber was oxic and contained platinum mesh counter electrode. PYO reduction was carried out by poising the working electrode at −400 mV vs. Ag/AgCl for 24 hours, past the point of 100% PYO reduction based on coulombic efficiency, and biochemical reactor was then transferred into the anaerobic chamber. Anoxic vials with pre-equilibrated MM and corresponding concentrations of reduced PYO were then treated with biochemical O2 scavenging system (10 mM glucose+375 nM glucose oxidase+750 nM catalase) for an hour before inoculation. Aerobic liquid cultures of P. aerughnosa in MM at mid-log (OD600=0.5) were spun down and resuspended in fresh media and used to inoculate assays with 10% (vol/vol). […]

Structure (SMILES): Cn1c2cccc(=O)c-2nc2ccccc21 [Pyocyanin (PYO), Pyocyanin]
- E1/2 vs Ag/AgCl in biofilm square wave voltammograms [1]: −250 mV
- E1/2 (vs. Ag/AgCl (3M KCl))/mV ([2]; pH 5): −128 mV
- E1/2 estimated vs. Ag/AgCl (3M KCl) ([2]; pH 6, estimated): −178 mV
- E1/2 (vs. Ag/AgCl (3M KCl))/mV ([2]; pH 6): −189 mV
- E1/2 vs. Ag/AgCl (3M KCl) ([2]; pH 7, 298 K, 0.1 M KCl, gold disk working electrode): −237 mV
- E1/2 vs. NHE ([2]; pH 7, 298 K, corrected to NHE by adding 197 mV): −40 mV
- E1/2 (vs. Ag/AgCl (3M KCl))/mV ([2]; pH 7): −237 mV
- E1/2 estimated by Nernst equation ([2]; pH 8, estimated from pH 7 value): −296 mV
- E1/2 (vs. Ag/AgCl (3M KCl))/mV ([2]; pH 8): −300 mV
- E1/2 (vs. Ag/AgCl (3M KCl))/mV ([3]; pH 5): −128 mV
- E1/2 (vs. Ag/AgCl (3M KCl))/mV ([3]; pH 6): −189 mV
- E1/2 (vs. Ag/AgCl (3M KCl))/mV ([3]; pH 7): −237 mV
- E1/2 (vs. Ag/AgCl (3M KCl))/mV ([3]; pH 8): −300 mV
- effect of PYO addition on Δphz* biofilm CFUs (in words) (Δphz* biofilms; listed as PYO): sensitized under PYO-reductive conditions
- effect of PYO addition on Δphz* biofilm CFUs (in words) (Δphz* biofilms; listed as pyocyanin): re-sensitized
- Reduction by PA14? (PA14 [4]): Yes
- E0' (vs. NHE) (mV) [5]: −40^a mV
- Redox potentials E (mV) [6]: −34 mV
- Support survival? (PA14 [7]): Yes
- # of Redox cycles over 7 days (PA14 [7]; over 7 days): 31

Structure (SMILES): CN1c2ccccc2Nc2c(O)cccc21 [reduced PYO]
- decrease in CFUs of liquid cultures [8]: two- to threefold decrease in CFUs
